Columns and labels:
Assay in all cases: relative viability (nuclei count vs DMSO), 5 days (fraction); higher = more cells survive
DM3189 + Bortezomib = compound: C1CN(CCN1)C2=CC=C(C=C2)C3=CN4C(=C(C=N4)C5=CC=NC6=CC=CC=C56)N=C3 [DM3189] + CC(C)C[C@H](NC(=O)[C@H](Cc1ccccc1)NC(=O)c1cnccn1)B(O)O [Bortezomib] (partner 0.002 µM)
Method in brief: (§1)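 Relative viability equals treated-well nuclei counts divided by vehicle-well nuclei counts. Counts came from 4× images of lung cancer cell lines grown in 1536-well plates for 5 days after pin-tool dosing on the day after seeding. Dosing used one drug alone or a fixed anchor-drug dose plus five library-drug doses (not always all listed) in √10 steps, and values are medians of duplicate plates.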

DM3189 + Foretinib = compound: C1CN(CCN1)C2=CC=C(C=C2)C3=CN4C(=C(C=N4)C5=CC=NC6=CC=CC=C56)N=C3 [DM3189] + COc1cc2c(Oc3ccc(NC(=O)C4(C(=O)Nc5ccc(F)cc5)CC4)cc3F)ccnc2cc1OCCCN1CCOCC1 [Foretinib] (partner 0.25 µM)
Method in brief: as §1

DM3189 + Tozasertib = compound: C1CN(CCN1)C2=CC=C(C=C2)C3=CN4C(=C(C=N4)C5=CC=NC6=CC=CC=C56)N=C3 [DM3189] + Cc1cc(Nc2cc(N3CCN(C)CC3)nc(Sc3ccc(NC(=O)C4CC4)cc3)n2)n[nH]1 [Tozasertib] (partner 0.1 µM)
Method in brief: as §1

DM3189 + Vorinostat = compound: C1CN(CCN1)C2=CC=C(C=C2)C3=CN4C(=C(C=N4)C5=CC=NC6=CC=CC=C56)N=C3 [DM3189] + O=C(CCCCCCC(=O)Nc1ccccc1)NO [Vorinostat] (partner 1 µM)
Method in brief: as §1

DM3189 + Luminespib = compound: C1CN(CCN1)C2=CC=C(C=C2)C3=CN4C(=C(C=N4)C5=CC=NC6=CC=CC=C56)N=C3 [DM3189] + CCNC(=O)c1noc(-c2cc(C(C)C)c(O)cc2O)c1-c1ccc(CN2CCOCC2)cc1 [Luminespib] (partner 0.01 µM)
Method in brief: as §1

Cell Line	relative viability (DM3189 + Bortezomib; first compound 0.08 µM)	relative viability (DM3189 + Bortezomib; first compound 0.253 µM)	relative viability (DM3189 + Bortezomib; first compound 0.8 µM)	relative viability (DM3189 + Bortezomib; first compound 2.53 µM)	relative viability (DM3189 + Foretinib; first compound 0.08 µM)	relative viability (DM3189 + Foretinib; first compound 0.253 µM)	relative viability (DM3189 + Foretinib; first compound 2.53 µM)	relative viability (DM3189 + Tozasertib; first compound 0.08 µM)	relative viability (DM3189 + Tozasertib; first compound 0.253 µM)	relative viability (DM3189 + Tozasertib; first compound 2.53 µM)	relative viability (DM3189 + Vorinostat; first compound 0.08 µM)	relative viability (DM3189 + Vorinostat; first compound 0.253 µM)	relative viability (DM3189 + Vorinostat; first compound 0.8 µM)	relative viability (DM3189 + Vorinostat; first compound 2.53 µM)	relative viability (DM3189 + Luminespib; first compound 0.08 µM)	relative viability (DM3189 + Luminespib; first compound 0.253 µM)	relative viability (DM3189 + Luminespib; first compound 0.8 µM)	relative viability (DM3189 + Luminespib; first compound 2.53 µM)	relative viability (DM3189 + Foretinib; first compound 0.8 µM)	relative viability (DM3189 + Tozasertib; first compound 0.8 µM)
HCC-366	1.12	0.99	0.931	1.06	0.939	0.975	0.936	0.133	0.0982	0.0984	0.363	0.285	0.191	0.41						
HCC-827	1.12	0.958	0.985	1.06	1.1	0.945	0.935	0.376	0.36	0.377	1.04	0.821	0.876	0.681	0.589	0.515	0.608	0.583	0.953	0.354
HOP-62	1.18	0.927	0.393	0.58	1.05	1.07	1.16	0.31	0.347	0.356	0.566	0.702	0.573	0.66	0.981	0.905	0.774	1.01	1.04	0.389
IA-LM	1.28	0.935	1.37	0.956	1.24	1.2	1.32				0.962	1.11	1.1	1.04					1.26	
LC-2-ad	0.975	0.934	0.943	1.06	1.08	0.926	0.992	0.461	0.396	0.482	0.744	0.7	0.663	0.723	0.827	0.926	0.891	0.979	0.931	0.474
LCLC-97TM1	1.26	0.573	0.531	0.366	0.877	0.857	0.747	0.229	0.171	0.188	0.73	0.647	0.687	0.751	0.71	0.574	0.699	0.606	0.765	0.182
LCLC-103H	1.14	0.939	0.955	1.07	0.847	0.761	0.702	0.502	0.453	0.408	0.816	0.8	0.734	0.744	0.974	0.985	0.933	0.999	0.718	0.461
LK-2					1.05	0.88	0.858	0.183	0.187	0.166	0.292	0.273	0.213	0.227	0.188	0.214	0.145	0.191	0.72	0.185
LOU-NH91	0.487	0.529	0.463	0.443	1.08	0.942	0.96	0.7	0.696	0.637	1.15	0.891	0.71	0.91	0.361	0.329	0.316	0.377	0.891	0.659
